This passage reports viability, T/C and IC50 results from PubChem BioAssay AID2060483 (Molecular Pharmacology Branch, DTP, NCI, 2025).

Values joined by “and” are separate entries in the source; they are usually repeats but may differ in a detail not shown here. Equal values may be shown once. Some results are limits rather than exact numbers.

This experiment concerns K24384-001-R-PDC complex spheroids, viability. Briefly: Anticancer human tumor K24384-001-R-PDC patient-derived pancreatic adenocarcinoma cell line growth inhibition [GQUAD]. To be noted: for viability, T/C: stronger effect = lower value; for IC50: curve of compound. An excerpt: DNA G-quadruplex Stabilizer Agents in Combinations in Complex Spheroids
A high-throughput screen of multi-cell type tumor spheroids was designed to identify active combinations of DNA G-quadruplex stabilizer agents and targeted small molecules. Complex spheroids include a stromal component modeled by human endothelial cells (HUVEC) and fibroblasts modeled by human mesenchymal stem cells (MSCs). The concentration ranges selected for each drug and investigational agent were based upon clinically achievable concentrations if the clinical Cmax of the agent was known.
Compounds. The drugs and investigational agents: pidnarulex (CX-5461; NSC782164), APTO-253 (NSC789042), BRACO-19 (NSC847499), peposertib (NSC802822), ceralasertib (NSC780249), elimusertib (NSC800525), camonsertib (NSC841442), AZD-1390 (NSC803789), olaparib (NSC753686), talazoparib (NSC767125), ART-558 (NSC835418), sotorasib (NSC818433), MRTX-1133 (NSC836407), SN-38 (NSC673596), topotecan (NSC609699), etoposide (NSC141540), doxorubicin (NSC123127), gemcitabine (NSC613327), 5-fluorouracil (NSC19893), paclitaxel (NSC125973), vemurafenib (NSC761431), panobinostat (NSC761190), R-306465 (JNJ-16241199; NSC773264), adavosertib (NSC754352), TP-3654 (NSC805149), carboplatin (NSC241240), KSQ-4279 (NSC840948), and staurosporine (NSC755774) were obtained from the National Cancer Institute (NCI) Developmental Therapeutics Program Chemical Repository (34). The FDA-approved anticancer drug set is available from the NCI Developmental Therapeutics Program. […] The stock solutions were prepared in dimethyl sulfoxide (DMSO, Sigma-Aldrich, St. Louis, MO, cat. D2650) at 800-fold the tested concentration and stored at -70 degrees C prior to their use. All drugs and investigational agents were tested over a range starting from a high concentration at or near the clinical Cmax and decreasing in half-log increments. If the clinical Cmax for an agent had not been determined, the highest concentration tested was 10 microM.
2.3 Cell Culture. All cells were maintained in an incubator at 37 degrees C and 5% CO2 with 95% humidity. The PDC lines were cultured according to standard operating procedures established by the NCI PDMR. All PDCs were thawed and cultured in Matrigel-coated flasks prepared with a working solution of 1X Ham's F-12 nutrient mix, without supplementation (Invitrogen, cat. 11765054), 100 U/mL penicillin-streptomycin (Invitrogen, cat. 15140122), and 2.5% Matrigel (Corning Inc., cat. 354248) for the first three passages. The 857933-349-R-J2-PDC line was cultured in 6C/Colon 1B media, which includes advanced DMEM/F-12 (Thermo Fisher Scientific, cat. 12634028), 10 mM HEPES (Thermo Fisher Scientific, cat. 15630080), 1X GlutaMAX supplement (Thermo Fisher Scientific, cat. 35050061), 0.1 mg/mL primocin (InvivoGen, cat. ant-pm-2), 10% defined fetal bovine serum, heat inactivated (HyClone Laboratories Inc., cat. SH30070.03HI), 50% L-WRN conditioned media (ATCC, cat. CRL-3276), 1.25 mM N-Acetyl-L-cysteine (Sigma-Aldrich, cat. A9165), 10 mM nicotinamide (Sigma-Aldrich, cat. N0636), 1X B-27 supplement (Thermo Fisher Scientific, cat. 17504044), 1X N-2 supplement (Thermo Fisher Scientific, cat. 17502048), 10 microM Y-27632 dihydrochloride (Tocris Bioscience, cat. 1254), and 50 ng/mL human EGF recombinant protein (Thermo Fisher Scientific, cat. PHG0311). The 485176-168-R4-J1-PDC line was cultured in Panc media, which includes all 6C/Colon 1B media components plus 100 ng/mL human FGF-10 (Thermo Fisher Scientific, cat. 100-26), 500 nM SB-431542 (Selleckchem, cat. S1067), and gastrin (Tocris, cat. 3006).
[…]

Usually viability, T/C stands for the ratio of treated to control. The IC50 is the point on the concentration scale where inhibition reaches its midpoint.
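Note: spheroids exposed to compounds for seven days.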

On to `C#Cc1c(F)ccc2cc(O)cc(-c3ncc4c(N5CC6CCC(C5)N6)nc(OCC56CCCN5CC(F)C6)nc4c3F)c12` (centres undefined), for which the IC50 was 2.06 µM and 1.35 µM and 1.32 µM. Besides, the viability, T/C (compound 0.0316 µM) is 107% and 94.9% and 91.9%. Under “compound 0.1 µM”, the viability, T/C is 99.2% and 99.3% and 86.2%. The viability, T/C (compound 0.316 µM) is 98.2% and 95.7% and 83.9%. Further, the viability, T/C (compound 1 µM) was 74.1% and 52.7% and 53%. Moreover, the viability, T/C (compound 3.16 µM) was 35.6% and 35.4% and 33.3%. The viability, T/C (compound 10 µM) was 19.8% and 14.8% and 18.1%.

In the case of `C=CC(=O)N1CCN(c2nc(=O)n(-c3c(C)ccnc3C(C)C)c3nc(-c4c(O)cccc4F)c(F)cc23)C(C)C1` (centres undefined), the half-inhibitory concentration (IC50) is more than 10 µM. Moreover, the viability, T/C (compound 0.0316 µM) is 110% and 115% and 96.6%. Also, the viability, T/C (compound 0.1 µM) was 95.3% and 80% and 113%. The viability, T/C (compound 0.316 µM) is 105% and 99.4% and 119%. Moreover, the viability, T/C (compound 1 µM) was 91.2% and 103% and 99.1%. The viability, T/C (compound 3.16 µM) is 104% and 116% and 106%. Moreover, the viability, T/C (compound 10 µM) was 93% and 80.7% and 94.2%.

Turning to `C=CCn1c(=O)c2cnc(Nc3ccc(N4CCN(C)CC4)cc3)nc2n1-c1cccc(C(C)(C)O)n1`, the IC50 was 0.29 µM and 0.271 µM and 0.466 µM. Besides, the viability, T/C (compound 0.0316 µM) was 95.1% and 91% and 82%. Also, under “compound 0.1 µM”, the viability, T/C was 83.3% and 71% and 74.8%. Further, the viability, T/C (compound 0.316 µM) was 47.9% and 50.8% and 64%. Besides, the viability, T/C (compound 1 µM) was 20.5% and 17.9% and 22.7%. Besides, the viability, T/C (compound 3.16 µM) is 13.4% and 12.8% and 16.7%. The viability, T/C (compound 10 µM) was 19.4% and 15.9% and 18.2%.

Consider `CC(=O)O[C@H]1C(=O)[C@@]2(C)[C@H]([C@H](OC(=O)c3ccccc3)[C@]3(O)C[C@H](OC(=O)[C@H](O)[C@@H](NC(=O)c4ccccc4)c4ccccc4)C(C)=C1C3(C)C)[C@]1(OC(C)=O)CO[C@@H]1C[C@@H]2O`, for which the IC50 is less than 0.0316 µM. For the same compound, where the note is “compound 0.0316 µM”, the viability, T/C was 33.8% and 31.3% and 53.9%. For the same compound, the viability, T/C (compound 0.1 µM) is 25.3% and 22% and 20.2%. For the setting “compound 0.316 µM”, the viability, T/C was 23.4% and 18.5% and 29.6%. Moreover, the viability, T/C (compound 1 µM) was 20.5% and 21.1% and 28.1%. The viability, T/C (compound 3.16 µM) was 25.6% and 20.9% and 26.2%. Further, the viability, T/C (compound 10 µM) was 28.5% and 28.9% and 37.3%.

In the case of `CC(C)(O)C1CCC(Nc2ccc3ncc(-c4cccc(C(F)(F)F)c4)n3n2)CC1` (centres undefined), the IC50 was 1.68 µM and 2.24 µM and 1.39 µM. Moreover, the viability, T/C (compound 0.0316 µM) was 103% and 104% and 99%. For the setting “compound 0.1 µM”, the viability, T/C is 95.2% and 105% and 94.7%. For the same compound, the viability, T/C (compound 0.316 µM) is 113% and 101% and 108%. The viability, T/C (compound 1 µM) was 61% and 80.7% and 57.2%. In addition, the viability, T/C (compound 3.16 µM) was 25% and 33.2% and 28.8%. For the same compound, the viability, T/C (compound 10 µM) was 48% and 40.7% and 36%.

In the case of `CCCS(=O)(=O)Nc1ccc(F)c(C(=O)c2c[nH]c3ncc(-c4ccc(Cl)cc4)cc23)c1F`, the IC50 is 9.4 µM and > 10 µM. For the same compound, the viability, T/C (compound 0.0316 µM) is 99.8% and 109% and 105%. Further, where the note is “compound 0.1 µM”, the viability, T/C is 107% and 112% and 96.4%. Also, the viability, T/C (compound 0.316 µM) was 128% and 125% and 130%. In addition, for the setting “compound 1 µM”, the viability, T/C is 119% and 110% and 116%. Also, for the setting “compound 3.16 µM”, the viability, T/C is 137% and 147% and 123%. For the same compound, the viability, T/C (compound 10 µM) was 46.2% and 54.7% and 52.6%.

For `COc1cc(C2c3cc4c(cc3C(OC3OC5COC(C)OC5C(O)C3O)C3COC(=O)C23)OCO4)cc(OC)c1O` (centres undefined), the 50% inhibitory concentration (IC50) is 0.964 µM and 1.32 µM and 0.884 µM. Besides, for the setting “compound 0.0316 µM”, the viability, T/C is 103% and 98.4% and 102%. For the same compound, the viability, T/C (compound 0.1 µM) was 98% (2×) and 98.4%. The viability, T/C (compound 0.316 µM) is 75.9% and 85.9% and 71.3%. Further, the viability, T/C (compound 1 µM) was 48.9% and 52.9% and 48.6%. For the same compound, the viability, T/C (compound 3.16 µM) is 37.1% and 41.1% and 35.2%. Also, the viability, T/C (compound 10 µM) was 30.8% and 35.4% and 31.2%.
